# Measured values as given in patent publication US6355799B1, “Substituted benzene compounds, process for their preparation, and herbicidal and defoliant compositions containing them” (ISK Americas Incorporated, priority 1997, dated 2002).
# Assays:
# Format in all cases: in vivo
# [1] = test system: sicklepod (Cassia obtusifolia, CASOB); assay: Pre-emerge test, greenhouse herbicide activity screening; settings: pre-emerge; for Pre-emerge Herbicidal Activity CASOB: phytotoxicity rating 0-100 at 14 days after application; for phytotoxicity rating CASOB: 14 days after application, scale 0-100
# Outline: (§1)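 Compounds in acetone were track-sprayed at 187 l/ha, 15–1000 g ai/ha, onto sandy loam pots. Pre-emerge seeds were sown one day before spraying, with surface watering afterwards. Post-emerge plants were at the 2–3 leaf stage and sprayed with 0.25% v/v non-ionic surfactant. Injury was rated 0–100 at 14 days.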
# [2] = test system: barnyardgrass (Echinochloa crus-galli, ECHCG); assay: as above; settings: pre-emerge; for Pre-emerge Herbicidal Activity ECHCG: phytotoxicity rating 0-100 at 14 days after application; for phytotoxicity rating ECHCG: 14 days after application, scale 0-100
# Outline: as §1
# [3] = test system: green foxtail (Setaria viridis, SETVI); assay: as above; settings: pre-emerge; for Pre-emerge Herbicidal Activity SETVI: phytotoxicity rating 0-100 at 14 days after application; for phytotoxicity rating SETVI: 14 days after application, scale 0-100
# Outline: as §1
# [4] = test system: lambsquarters (Chenopodium album, CHEAL); assay: as above; settings: pre-emerge; for Pre-emerge Herbicidal Activity CHEAL: phytotoxicity rating 0-100 at 14 days after application; for phytotoxicity rating CHEAL: 14 days after application, scale 0-100
# Outline: as §1
# [5] = test system: johnsongrass (Sorghum halepense, SORHA); assay: as above; settings: pre-emerge; for Pre-emerge Herbicidal Activity SORHA: phytotoxicity rating 0-100 at 14 days after application; for phytotoxicity rating SORHA: 14 days after application, scale 0-100
# Outline: as §1
# [6] = test system: ivyleaf morningglory (Ipomoea hederacea, IPOHE); assay: as above; settings: pre-emerge; for Pre-emerge Herbicidal Activity IPOHE: phytotoxicity rating 0-100 at 14 days after application; for phytotoxicity rating IPOHE: 14 days after application, scale 0-100
# Outline: as §1
# [7] = test system: large crabgrass (Digitaria sanguinalis, DIGSA); assay: as above; settings: pre-emerge; for Pre-emerge Herbicidal Activity DIGSA: phytotoxicity rating 0-100 at 14 days after application; for phytotoxicity rating DIGSA: 14 days after application, scale 0-100
# Outline: as §1
# [8] = test system: velvetleaf (Abutilon theophrasti, ABUTH); assay: as above; settings: pre-emerge; for Pre-emerge Herbicidal Activity ABUTH: phytotoxicity rating 0-100 at 14 days after application; for phytotoxicity rating ABUTH: 14 days after application, scale 0-100
# Outline: as §1
# [9] = test system: field corn (Zea mays L., var. Dekalb 535, CORN); assay: Post-emerge test, crop safety; settings: post-emerge; for Post-emerge Herbicidal Activity CORN: crop damage rating 0-100 at 14 days after application; for CORN phytotoxicity rating (crop damage): 14 days after application, rating scale 0-100
# Outline: as §1
# [10] = test system: upland rice (Oryza sp., var. Tebonnet, RICE); assay: Post-emerge test, crop safety; settings: post-emerge; for Post-emerge Herbicidal Activity RICE: crop damage rating 0-100 at 14 days after application; for RICE phytotoxicity rating (crop damage): 14 days after application, rating scale 0-100
# Outline: as §1
# [11] = test system: redroot pigweed (Amaranthus retroflexus, AMARE); assay: Pre-emerge test, greenhouse herbicide activity screening; settings: pre-emerge; for Pre-emerge Herbicidal Activity AMARE: phytotoxicity rating 0-100 at 14 days after application; for phytotoxicity rating AMARE: 14 days after application, scale 0-100
# Outline: (§2)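 Compounds in acetone were track-sprayed at 15-1000 g ai/ha (187 l/ha) on sandy loam pots: pre-emerge one day after seeding, post-emerge at 2-3 leaf stage with 0.25% v/v non-ionic surfactant. Phytotoxicity was rated 14 days later on a 0 (no damage) to 100 (complete death) scale.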
# [12] = test system: sicklepod (Cassia obtusifolia, CASOB); assay: Post-emerge test, greenhouse herbicide activity screening; settings: post-emerge; for Post-emerge Herbicidal Activity CASOB: phytotoxicity rating 0-100 at 14 days after application; for CASOB phytotoxicity rating: 14 days after application, rating scale 0-100
# Outline: as §1
# [13] = test system: redroot pigweed (Amaranthus retroflexus, AMARE); assay: as above; settings: post-emerge; for Post-emerge Herbicidal Activity AMARE: phytotoxicity rating 0-100 at 14 days after application; for AMARE phytotoxicity rating: 14 days after application, rating scale 0-100
# Outline: as §1
# [14] = test system: barnyardgrass (Echinochloa crus-galli, ECHCG); assay: as above; settings: post-emerge; for Post-emerge Herbicidal Activity ECHCG: phytotoxicity rating 0-100 at 14 days after application; for ECHCG phytotoxicity rating: 14 days after application, rating scale 0-100
# Outline: as §1
# [15] = test system: green foxtail (Setaria viridis, SETVI); assay: as above; settings: post-emerge; for Post-emerge Herbicidal Activity SETVI: phytotoxicity rating 0-100 at 14 days after application; for SETVI phytotoxicity rating: 14 days after application, rating scale 0-100
# Outline: as §1
# [16] = test system: lambsquarters (Chenopodium album, CHEAL); assay: as above; settings: post-emerge; for Post-emerge Herbicidal Activity CHEAL: phytotoxicity rating 0-100 at 14 days after application; for CHEAL phytotoxicity rating: 14 days after application, rating scale 0-100
# Outline: as §1
# [17] = test system: ivyleaf morningglory (Ipomoea hederacea, IPOHE); assay: as above; settings: post-emerge; for Post-emerge Herbicidal Activity IPOHE: phytotoxicity rating 0-100 at 14 days after application; for IPOHE phytotoxicity rating: 14 days after application, rating scale 0-100
# Outline: as §1
# [18] = test system: large crabgrass (Digitaria sanguinalis, DIGSA); assay: as above; settings: post-emerge; for Post-emerge Herbicidal Activity DIGSA: phytotoxicity rating 0-100 at 14 days after application; for DIGSA phytotoxicity rating: 14 days after application, rating scale 0-100
# Outline: as §1
# [19] = test system: velvetleaf (Abutilon theophrasti, ABUTH); assay: as above; settings: post-emerge; for Post-emerge Herbicidal Activity ABUTH: phytotoxicity rating 0-100 at 14 days after application; for ABUTH phytotoxicity rating: 14 days after application, rating scale 0-100
# Outline: as §1
# [20] = test system: field corn (Zea mays L., var. Dekalb 535, CORN); assay: Pre-emerge test, crop safety; settings: pre-emerge; for Pre-emerge Herbicidal Activity CORN: crop damage, phytotoxicity rating 0-100 at 14 days after application; for phytotoxicity rating CORN (crop damage): 14 days after application, scale 0-100
# Outline: as §2
# [21] = test system: upland rice (Oryza sp., var. Tebonnet, RICE); assay: Pre-emerge test, crop safety; settings: pre-emerge; for Pre-emerge Herbicidal Activity RICE: crop damage, phytotoxicity rating 0-100 at 14 days after application; for phytotoxicity rating RICE (crop damage): 14 days after application, scale 0-100
# Outline: as §2
smiles,measurement,setting,value
COc1c(Cl)cc(F)c(-n2nnn(CCCF)c2=O)c1NC(=O)COCc1ccccc1 [Compound 5-28],Pre-emerge Herbicidal Activity CASOB,[1]; rate 63 g ai/ha,100
same,Pre-emerge Herbicidal Activity CASOB,[1]; rate 250 g ai/ha,100
same,Pre-emerge Herbicidal Activity ECHCG,[2]; rate 63 g ai/ha,30
same,Pre-emerge Herbicidal Activity ECHCG,[2]; rate 250 g ai/ha,60
same,Pre-emerge Herbicidal Activity SETVI,[3]; rate 63 g ai/ha,50
same,Pre-emerge Herbicidal Activity SETVI,[3]; rate 250 g ai/ha,85
same,Pre-emerge Herbicidal Activity CHEAL,[4]; rate 63 g ai/ha,100
same,Pre-emerge Herbicidal Activity CHEAL,[4]; rate 250 g ai/ha,100
same,Pre-emerge Herbicidal Activity SORHA,[5]; rate 63 g ai/ha,20
same,Pre-emerge Herbicidal Activity SORHA,[5]; rate 250 g ai/ha,30
same,Pre-emerge Herbicidal Activity IPOHE,[6]; rate 63 g ai/ha,60
same,Pre-emerge Herbicidal Activity IPOHE,[6]; rate 250 g ai/ha,100
same,Pre-emerge Herbicidal Activity DIGSA,[7]; rate 63 g ai/ha,30
same,Pre-emerge Herbicidal Activity DIGSA,[7]; rate 250 g ai/ha,90
same,Pre-emerge Herbicidal Activity ABUTH,[8]; rate 63 g ai/ha,100
same,Pre-emerge Herbicidal Activity ABUTH,[8]; rate 250 g ai/ha,100
same,Post-emerge Herbicidal Activity CORN,[9]; 63 g ai/ha,25
same,Post-emerge Herbicidal Activity CORN,[9]; 250 g ai/ha,70
same,Post-emerge Herbicidal Activity RICE,[10]; 63 g ai/ha,60
same,Post-emerge Herbicidal Activity RICE,[10]; 250 g ai/ha,70
same,Pre-emerge Herbicidal Activity AMARE,[11]; rate 63 g ai/ha,100
same,Pre-emerge Herbicidal Activity AMARE,[11]; rate 250 g ai/ha,100
same,Post-emerge Herbicidal Activity CASOB,[12]; 63 g ai/ha,90
same,Post-emerge Herbicidal Activity CASOB,[12]; 250 g ai/ha,100
same,Post-emerge Herbicidal Activity AMARE,[13]; 63 g ai/ha,100
same,Post-emerge Herbicidal Activity AMARE,[13]; 250 g ai/ha,100
same,Post-emerge Herbicidal Activity ECHCG,[14]; 63 g ai/ha,0
same,Post-emerge Herbicidal Activity ECHCG,[14]; 250 g ai/ha,50
same,Post-emerge Herbicidal Activity SETVI,[15]; 63 g ai/ha,10
same,Post-emerge Herbicidal Activity SETVI,[15]; 250 g ai/ha,30
same,Post-emerge Herbicidal Activity CHEAL,[16]; 63 g ai/ha,100
same,Post-emerge Herbicidal Activity CHEAL,[16]; 250 g ai/ha,100
same,Post-emerge Herbicidal Activity IPOHE,[17]; 63 g ai/ha,100
same,Post-emerge Herbicidal Activity IPOHE,[17]; 250 g ai/ha,100
same,Post-emerge Herbicidal Activity DIGSA,[18]; 63 g ai/ha,10
same,Post-emerge Herbicidal Activity DIGSA,[18]; 250 g ai/ha,30
same,Post-emerge Herbicidal Activity ABUTH,[19]; 63 g ai/ha,100
same,Post-emerge Herbicidal Activity ABUTH,[19]; 250 g ai/ha,100
same,Pre-emerge Herbicidal Activity CORN,[20]; rate 63 g ai/ha,10
same,Pre-emerge Herbicidal Activity CORN,[20]; rate 250 g ai/ha,20
same,Pre-emerge Herbicidal Activity RICE,[21]; rate 63 g ai/ha,30
same,Pre-emerge Herbicidal Activity RICE,[21]; rate 250 g ai/ha,60
Cn1c(C(F)(F)F)cc(=O)n(-c2ccccc2NC(=O)c2ccc3ccccc3c2)c1=O [2-142],phytotoxicity rating CASOB,[1]; 63 g ai/ha,0
same,phytotoxicity rating CASOB,[1]; 250 g ai/ha,0
same,phytotoxicity rating ECHCG,[2]; 63 g ai/ha,0
same,phytotoxicity rating ECHCG,[2]; 250 g ai/ha,0
same,phytotoxicity rating SETVI,[3]; 63 g ai/ha,0
same,phytotoxicity rating SETVI,[3]; 250 g ai/ha,0
same,phytotoxicity rating CHEAL,[4]; 63 g ai/ha,40
same,phytotoxicity rating CHEAL,[4]; 250 g ai/ha,70
same,phytotoxicity rating SORHA,[5]; 63 g ai/ha,0
same,phytotoxicity rating SORHA,[5]; 250 g ai/ha,0
same,phytotoxicity rating IPOHE,[6]; 63 g ai/ha,0
same,phytotoxicity rating IPOHE,[6]; 250 g ai/ha,0
same,phytotoxicity rating DIGSA,[7]; 63 g ai/ha,0
same,phytotoxicity rating DIGSA,[7]; 250 g ai/ha,0
same,phytotoxicity rating ABUTH,[8]; 63 g ai/ha,0
same,phytotoxicity rating ABUTH,[8]; 250 g ai/ha,0
same,CORN phytotoxicity rating (crop damage),[9]; 63 g ai/ha,10
same,CORN phytotoxicity rating (crop damage),[9]; 250 g ai/ha,15
same,RICE phytotoxicity rating (crop damage),[10]; 63 g ai/ha,10
same,RICE phytotoxicity rating (crop damage),[10]; 250 g ai/ha,0
same,phytotoxicity rating AMARE,[11]; 63 g ai/ha,0
same,phytotoxicity rating AMARE,[11]; 250 g ai/ha,40
same,CASOB phytotoxicity rating,[12]; 63 g ai/ha,0
same,CASOB phytotoxicity rating,[12]; 250 g ai/ha,10
same,AMARE phytotoxicity rating,[13]; 63 g ai/ha,0
same,AMARE phytotoxicity rating,[13]; 250 g ai/ha,40
same,ECHCG phytotoxicity rating,[14]; 63 g ai/ha,0
same,ECHCG phytotoxicity rating,[14]; 250 g ai/ha,0
same,SETVI phytotoxicity rating,[15]; 63 g ai/ha,0
same,SETVI phytotoxicity rating,[15]; 250 g ai/ha,0
same,CHEAL phytotoxicity rating,[16]; 63 g ai/ha,20
same,CHEAL phytotoxicity rating,[16]; 250 g ai/ha,60
same,IPOHE phytotoxicity rating,[17]; 63 g ai/ha,0
same,IPOHE phytotoxicity rating,[17]; 250 g ai/ha,50
same,DIGSA phytotoxicity rating,[18]; 63 g ai/ha,0
same,DIGSA phytotoxicity rating,[18]; 250 g ai/ha,0
same,ABUTH phytotoxicity rating,[19]; 63 g ai/ha,0
same,ABUTH phytotoxicity rating,[19]; 250 g ai/ha,40
same,phytotoxicity rating CORN (crop damage),[20]; 63 g ai/ha,0
same,phytotoxicity rating CORN (crop damage),[20]; 250 g ai/ha,0
same,phytotoxicity rating RICE (crop damage),[21]; 63 g ai/ha,0
same,phytotoxicity rating RICE (crop damage),[21]; 250 g ai/ha,0
